From patent US10870634B2, “Histone demethylase inhibitors” (CELGENE QUANTICEL RESEARCH, INC., priority 2016, dated 2020) come the findings set out here.

In this assay the target is T1, FBXL10 (Homo sapiens, UniProt Q8NHM5).
T1 construct: purchased BPS Bioscience 50120
T1 sequence (Q8NHM5 1-650): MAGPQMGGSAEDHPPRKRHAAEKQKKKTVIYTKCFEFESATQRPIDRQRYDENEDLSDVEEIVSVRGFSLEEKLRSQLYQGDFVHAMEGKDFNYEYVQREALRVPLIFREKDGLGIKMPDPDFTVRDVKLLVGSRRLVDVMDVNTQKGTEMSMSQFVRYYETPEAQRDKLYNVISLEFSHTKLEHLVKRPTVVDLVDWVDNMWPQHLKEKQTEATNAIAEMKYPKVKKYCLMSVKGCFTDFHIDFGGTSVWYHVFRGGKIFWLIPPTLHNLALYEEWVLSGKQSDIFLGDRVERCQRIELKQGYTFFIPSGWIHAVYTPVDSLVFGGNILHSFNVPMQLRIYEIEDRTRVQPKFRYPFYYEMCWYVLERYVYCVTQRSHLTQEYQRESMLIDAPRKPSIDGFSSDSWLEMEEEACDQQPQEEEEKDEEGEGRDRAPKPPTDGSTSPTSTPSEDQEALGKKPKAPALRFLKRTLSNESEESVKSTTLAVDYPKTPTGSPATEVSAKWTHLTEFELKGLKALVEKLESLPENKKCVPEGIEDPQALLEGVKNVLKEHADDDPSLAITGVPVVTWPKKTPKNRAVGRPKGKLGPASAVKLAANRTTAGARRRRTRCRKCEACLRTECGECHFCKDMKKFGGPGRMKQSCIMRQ
As to the kind of experiment: FBXL10 in vitro enzyme inhibition assay (AlphaScreen). The format is biochemical. To be noted: 0.3 nM FBXL10, 30 nM H3K36me2-biotin peptide, 0.2 μM alpha-ketoglutaric acid. An excerpt:
This assay determines the ability of a test compound to inhibit FBXL11, FRXL10, and PHF8 demethylase activity. Baculovirus-expressed FBXL11 (GenBank Accession # NM_012308, AA1-1162) was purchased from BPS Bioscience (Cat #50102). Baculovirus-expressed FBXL10 (GenBank Accession # NM_032590, AA 1-650) was purchased from BPS Bioscience (Cat #50120), Baculovirus-expressed PHF8 (GenBank Accession NP_055922.1) was purchased from Active Motif (Cat #31435).
The ability of test compounds to inhibit the activity of FBXM10 was determined in 384-well plate format under the following reaction conditions: 0.3 nM FBXL10, 30 nM H3K36me2-biotin labeled peptide (Anaspec cat #64442), 0.2 μM alpha-ketoglutaric acid in assay buffer of 50 mM HEPES, pH 7.3, 0.005% Brij35, 0.5 mM TCEP, 0.2 mg/ml BSA, 50 μM sodium L-ascorbate, 5 μM ammonium ironll sulfate. Reaction product was determined quantitatively by AlphaScreen detection after the addition of detection reagents anti-H3K36me1 antibody, AlphaScreen® Streptavidin-coated Donor beads, and AlphaScreen® Protein A Acceptor beads in 50 mM HEPES, pH 7.3, 10 mM NaCl, 0.005% Brij35, 5 mM EDTA, 2 mg/ml BSA to a final 10 μg/ml beads.
The assay reaction was initiated by the following: 3 μl of the mixture of 90 nM H3K36me2-biotin labeled peptide and 0.6 μM alpha-ketoglutaric acid with 3 μl of 11-point serial diluted inhibitor in 3% DMSO were added to each well of 384-well Proxiplate (Perkin Elmer), followed by e addition of 3 μl of 0.9 nM FBXL10 to initiate the reaction. The reaction mixture was incubated at room temp for 1 hr. and terminated by the addition of 3 μl of appropriate dilution of anti-H3K36me1 antibody in 50 mM HEPES, pH 7.3, 10 mM NaCl, 0.005% Brij35, 5 mM EDTA, and 2 mg/ml BSA. […] Plates were read by EnVision Multilabel Reader in AlphaScreen mode after minimum 2 hr incubation at room temp. […]
The ability to inhibit demethylase activity was quantified and the respective IC50 value was determined for substituted triazolylpyridine derivative compounds. […]
For orientation: Alpha assays give light when donor and acceptor beads are brought close together.

As a reminder, the IC50 is the point on the concentration scale where inhibition reaches its midpoint. A lower IC50 goes with higher potency. The molecule `Fc1cnccc1-c1nn[nH]c1C(F)(F)F` [Example 1, 3-fluoro-4-[5-(trifluoromethyl)-1H-1,2,3-triazol-4-yl]pyridine] displayed an IC50 of 100 to 1000 nM.

`Fc1ccc(Cl)cc1Nc1cnccc1-c1nn[nH]c1C(F)(F)F` [Example 2, N-(5-chloro-2-fluorophenyl)-4-[5-(trifluoromethyl)-1H-1,2,3-triazol-4-yl]pyridin-3-amine] had an IC50 of 1000 to 10000 nM.

Molecule `FC(F)(F)c1[nH]nnc1-c1ccncc1NCC1CCCc2ccccc21` (stereo not drawn) [Example 3, N-[(1,2,3,4-tetrahydronaphthalen-1-yl)methyl]-4-[5-(trifluoromethyl)-1H-1,2,3-triazol-4-yl]pyridine-3-amine] returned an IC50 of 1000 to 10000 nM.
